Key:
Cbl-b [1] = molecular target: T1, Cbl-b (Homo sapiens, UniProt Q13191); assay: Cbl-b inhibition assay (Cbl-b activity assay, FRET, Biological Example 1; 100 mM NaCl, 60 nM Src kinase); type: biochemical; conditions: upper bound stated in text lists; read-out: IC50 values in the Cbl-b inhibition assay of Biological Example 1
How it was run: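 Here, the E2 UbcH5B, irreversibly linked to Bodipy-fluorescein ubiquitin, binds Cbl-b once Src kinase phosphorylates it; Cbl-b carries an N-terminal biotinylated Avi-tag captured by streptavidin-terbium. An absent FRET signal indicates inhibition.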

T-cell [2] = assay: IL-2 secretion from T-cells co-stimulated with anti-CD3 and anti-CD28 antibody (Biological Example 2); type: cell-based, human; conditions: Homo sapiens, T-cell, primary human total T-cells, baseline = anti-CD3/anti-CD28 stimulated cells without inhibitor, read-out: IL-2 secretion, Anti-CD3/Anti-CD28 stimulation, fold change over baseline; for fold induction at 0.3 µM: 0.3 μM compound; for fold induction at 1 µM: 1 μM compound; for fold induction at 4 µM: 4 μM compound
How it was run: (§1)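 Values are fold-change over baseline: readings (IL-2 release, CD25 staining) from inhibitor-treated T-cells divided against untreated cells […]. No detailed procedure stated.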

T-cell [3] = assay: IL-2 secretion from T-cells stimulated with anti-CD3 antibody alone (Biological Example 2); type: cell-based; conditions: primary human total T-cells, read-out: IL-2 secretion, Anti-CD3 stimulation, fold change over baseline; for fold induction at 1 µM: 1 μM compound; for fold induction at 8 µM: 8 μM compound
Cbl-b [4] = molecular target: T1, Cbl-b; assay: Cbl-b activity assay (Cbl-b inhibition assay), TR-FRET of Cbl-b interaction with UbcH5B-Ub; type: biochemical; conditions: assay buffer with 100 mM NaCl, 60 nM Src kinase; read-out: Cbl-b activity IC50
How it was run: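 Compound-treated Cbl-b was incubated 1.5 h with Src kinase (60 nM final; 30 nM for asterisked values, which also used 50 mM instead of 100 mM NaCl), 1 mM ATP and 5 mM MgCl2. Binding to fluorescent Ub-loaded UbcH5B (C85K mutant) was then read by TR-FRET after 1 h more.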

T-cell [5] = assay: CD25 cell surface staining on T-cells co-stimulated with anti-CD3 and anti-CD28 antibody (Biological Example 2); type: cell-based, human; conditions: Homo sapiens, T-cell, primary human total T-cells, baseline = anti-CD3/anti-CD28 stimulated cells without inhibitor, read-out: CD25 staining, Anti-CD3/Anti-CD28 stimulation, fold change over baseline; for fold induction at 0.3 µM: 0.3 μM compound; for fold induction at 1 µM: 1 μM compound; for fold induction at 4 µM: 4 μM compound
How it was run: as §1

T-cell [6] = assay: CD25 cell surface staining on T-cells stimulated with anti-CD3 antibody alone (Biological Example 2); type: cell-based; conditions: primary human total T-cells, baseline = anti-CD3/anti-CD28 stimulated cells without inhibitor, read-out: CD25 staining, Anti-CD3 stimulation, fold change over baseline; for fold induction at 1 µM: 1 μM compound; for fold induction at 8 µM: 8 μM compound

T1 sequence (Q13191 36-427): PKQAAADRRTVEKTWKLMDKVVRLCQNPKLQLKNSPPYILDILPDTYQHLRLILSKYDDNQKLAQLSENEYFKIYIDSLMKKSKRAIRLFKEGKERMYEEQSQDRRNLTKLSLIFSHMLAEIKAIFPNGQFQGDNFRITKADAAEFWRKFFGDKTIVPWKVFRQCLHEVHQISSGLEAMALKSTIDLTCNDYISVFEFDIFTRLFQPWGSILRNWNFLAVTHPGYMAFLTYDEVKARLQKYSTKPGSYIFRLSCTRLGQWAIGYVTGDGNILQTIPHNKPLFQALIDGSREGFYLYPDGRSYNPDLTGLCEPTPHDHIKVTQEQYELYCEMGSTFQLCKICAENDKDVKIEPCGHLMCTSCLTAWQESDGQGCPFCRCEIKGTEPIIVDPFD

Row | SMILES | IC50 (Cbl-b [1]) [µM] | fold induction at 0.3 µM (T-cell [2]) | fold induction at 1 µM (T-cell [2]) | fold induction at 4 µM (T-cell [2]) | fold induction at 1 µM (T-cell [3]) | fold induction at 8 µM (T-cell [3]) | IC50 (Cbl-b [4]) [µM] | fold induction at 0.3 µM (T-cell [5]) | fold induction at 1 µM (T-cell [5]) | fold induction at 4 µM (T-cell [5]) | fold induction at 1 µM (T-cell [6]) | fold induction at 8 µM (T-cell [6])
1 | Cn1cnnc1CC1(c2cccc(N3Cc4c(cc(CN5CC(C)(F)C5)cc4C(F)(F)F)C3=O)c2)COC1 [Compound 424, 6-((3-fluoro-3-methylazetidin-1-yl)methyl)-2-(3-(3-((4-methyl-4H-1,2,4-triazol-3-yl)methyl)oxetan-3-yl)phenyl)-4-(trifluoromethyl)isoindolin-1-one] | ≤ 0.1 | > 7.5 | > 7.5 | > 7.5 | > 0.201 | > 0.201 | < 0.1 | 1.31 to 1.5 | 1.51 to 1.75 | 1.51 to 1.75 | > 1 | > 1
2 | Cc1cc(C(=O)Nc2cccc(C(C)(C)Cc3nncn3C)c2)nc(C2CC2)n1 [Compound 511, 2-cyclopropyl-6-methyl-N-{3-[2-methyl-1-(4-methyl-1,2,4-triazol-3-yl)propan-2-yl]phenyl}pyrimidine-4-carboxamide] | ≤ 0.1 | 5 to 7.5 | > 7.5 |  | 0.101 to 0.15 |  | < 0.1 | 1.31 to 1.5 | 1.31 to 1.5 |  | 0.801 to 1 | 
3 | CN(C)Cc1cc(C(=O)Nc2cccc(C3(Cc4nncn4C)COC3)c2)nc(C2CC2)n1 [Compound 503, 2-cyclopropyl-6-[(dimethylamino)methyl]-N-(3-{3-[(4-methyl-1,2,4-triazol-3-yl)methyl]oxetan-3-yl}phenyl)pyrimidine-4-carboxamide] | ≤ 0.1 | 2.51 to 5 | > 7.5 |  | 0.101 to 0.15 |  | < 0.1 | 1.31 to 1.5 | 1.31 to 1.5 |  | > 1 | 
4 | Cc1cc(C(=O)Nc2cccc([C@]3(Cc4nncn4C)CCOC3)c2)nc(C2CC2)n1 (single isomer, unassigned) [Compound 534a] | ≤ 0.3 | 1.01 to 2.5 | 2.51 to 5 |  | 0.051 to 0.1 |  | 0.1 to 0.3 | 1.01 to 1.3 | 1.01 to 1.3 |  | 0.601 to 0.8 | 
5 | Cn1cnnc1C[C@@]1(c2cccc(N3Cc4c(cc(CN5CCC6(CC6)C5)cc4C(F)(F)F)C3=O)c2)CCOC1 (single isomer, unassigned) [Compound 517a] | ≤ 0.1 | 2.51 to 5 | > 7.5 |  | 0.101 to 0.15 |  | < 0.1 | 1.01 to 1.3 | 1.01 to 1.3 |  | 0.801 to 1 | 
6 | CC[C@@H](c1cc2c(c(C(F)(F)F)c1)CN(c1cccc(C3(Cc4nncn4C)COC3)c1)C2=O)N1CC[C@H](F)C1 [Example 545, 6-((S)-1-((S)-3-fluoropyrrolidin-1-yl)propyl)-2-(3-(3-((4-methyl-4H-1,2,4-triazol-3-yl)methyl)oxetan-3-yl)phenyl)-4-(trifluoromethyl)isoindolin-1-one] | ≤ 0.1 | > 7.5 | > 7.5 |  | > 0.201 |  | < 0.1 | 1.51 to 1.75 | 1.51 to 1.75 |  | > 1 | 
7 | C[C@H]1CN(C)CCN1c1cc2c(c(C(F)(F)F)c1)CN(c1cccc([C@@](C)(F)C(F)(F)c3nncn3C)c1)C2=O [Compound 444, 6-((S)-2,4-Dimethylpiperazin-1-yl)-2-(3-((R)-1,1,2-trifluoro-1-(4-methyl-4H-1,2,4-triazol-3-yl)propan-2-yl)phenyl)-4-(trifluoromethyl)isoindolin-1-one] | ≤ 0.1 | 1.01 to 2.5 | 5 to 7.5 | > 7.5 | 0.101 to 0.15 | > 0.201 | < 0.1 | 1.01 to 1.3 | 1.01 to 1.3 | 1.31 to 1.5 | > 1 | > 1
8 | CN(c1cc2c(c(C(F)(F)F)c1)CN(c1cccc([C@@](C)(F)C(F)(F)c3nncn3C)c1)C2=O)[C@@H]1CNC[C@@H]1F [Example 548, 6-(((3R,4S)-4-fluoropyrrolidin-3-yl)(methyl)amino)-2-(3-((R)-1,1,2-trifluoro-1-(4-methyl-4H-1,2,4-triazol-3-yl)propan-2-yl)phenyl)-4-(trifluoro-methyl)isoindolin-1-one] | ≤ 0.3 | 1.01 to 2.5 | 2.51 to 5 |  | 0.101 to 0.15 |  | 0.1 to 0.3 | 1.01 to 1.3 | 1.01 to 1.3 |  | 0.601 to 0.8 | 
9 | C[C@@H](c1cc2c(c(C(F)(F)F)c1)CN(c1cccc(C3(Cc4nncn4C)COC3)c1)C2=O)N1CCC(F)(F)C1 [Compound 420, (S)-6-(1-(3,3-difluoropyrrolidin-1-yl)ethyl)-2-(3-(3-((4-methyl-4H-1,2,4-triazol-3-yl)methyl)oxetan-3-yl)phenyl)-4-(trifluoromethyl)isoindolin-1-one] | ≤ 0.1 | 2.51 to 5 | > 7.5 | > 7.5 | 0.151 to 0.2 | > 0.201 | < 0.1 | 1.31 to 1.5 | 1.31 to 1.5 | 1.31 to 1.5 | > 1 | > 1
10 | CN1CC2CCC(C1)N2c1cc2c(c(C(F)(F)F)c1)CN(c1cccc([C@@](C)(F)C(F)(F)c3nncn3C)c1)C2=O [Compound 445, 6-(3-Methyl-3,8-diazabicyclo[3.2.1]octan-8-yl)-2-(3-((R)-1,1,2-trifluoro-1-(4-methyl-4H-1,2,4-triazol-3-yl)propan-2-yl)phenyl)-4-(trifluoromethyl)isoindolin-1-one] | ≤ 0.1 | 5 to 7.5 | > 7.5 | > 7.5 | > 0.201 | > 0.201 | < 0.1 | 1.31 to 1.5 | 1.51 to 1.75 | 1.51 to 1.75 | > 1 | > 1
11 | Cn1cnnc1CC1(c2cccc(N3Cc4c(cc(CN5CCCC5=O)cc4C(F)(F)F)C3=O)c2)COC1 [Compound 426, 2-(3-(3-((4-methyl-4H-1,2,4-triazol-3-yl)methyl)oxetan-3-yl)phenyl)-6-((2-oxopyrrolidin-1-yl)methyl)-4-(trifluoromethyl)isoindolin-1-one] | ≤ 0.1 | 1.01 to 2.5 | 1.01 to 2.5 | 2.51 to 5 | 0.151 to 0.2 | > 0.201 | < 0.1 | 1.01 to 1.3 | 1.01 to 1.3 | 1.01 to 1.3 | > 1 | > 1
12 | C[C@H](Cc1nocc1C(F)(F)F)c1cccc(N2Cc3c(cc(CN4CC[C@H](F)C4)cc3C(F)(F)F)C2=O)c1 [Compound 485, 6-[[(3S)-3-fluoropyrrolidin-1-yl]methyl]-4-(trifluoromethyl)-2-[3-[(2R)-1-[4-(trifluoromethyl)-1,2-oxazol-3-yl]propan-2-yl]phenyl]-2,3-dihydro-1H-isoindol-1-one] | ≤ 0.3 | 1.01 to 2.5 | 1.01 to 2.5 | 2.51 to 5 | < 0.05 | 0.101 to 0.15 | 0.1 to 0.3 | 1.01 to 1.3 | 1.01 to 1.3 | 1.31 to 1.5 | 0.601 to 0.8 | > 1

Reference: patent US20220324835A1 (Nurix Therapeutics, Inc., priority 2018, published 2022)
